This is an account of results in patent US20210198284A1, “GOLD COMPOSITIONS AND METHODS OF USE THEREOF” (THE UNIVERSITY OF MASSACHUSETTS, priority 2018, published 2021).

Where two headings read alike, the source gives them in different places. Where only a bound is given, the exact number is not on record here.

In one data set the test system is C. neoformans KN99. Nature of the data set: Antifungal MIC. The class given is cell-based.
A further data set has as its system S. aureus. Nature of the data set: Antimicrobial screening of auranofin analogs. The class given is cell-based. The text has this:
(§1) Auranofin analogs were synthesized by varying the structure of the thio-sugar ligand and the phosphine ligands. These analogs were screened for antimicrobial activity against 5 key ESKAPE pathogens and E. coli. (Table 3). The “ESKAPE” pathogens consist of six pathogens with growing multidrug resistant virulence: Enterococcus faecium (gram-positive), Staphylococcus aureus (gram-positive), Klebsiella pneumoniae (gram-negative), Acinetobacter (gram-negative), Pseudomonas aeruginosa (gram-negative) and Eterobacter (gram-negative). According to the data from the Centers for Disease Control and Prevention (CDC), two-thirds of all clinical infections are caused by these six ESKAPE bacteria.

A further data set deals with E. cloacae. Put plainly: Antimicrobial screening of auranofin analogs. The class given is cell-based.
Text: as §1

The next data set concerns E. faecalis. Put plainly: Antimicrobial screening of auranofin analogs. The class given is cell-based.
Text: as §1

For the next data set, the system named is K. pneumoniae. Nature of the data set: Antimicrobial screening of auranofin analogs. The class given is cell-based.
Text: as §1

The next data set relates to P. aeruginosa. Put plainly: Antimicrobial screening of auranofin analogs. Type of data set: cell-based.
Text: as §1

The next data set concerns MRSA. Put plainly: Antimicrobial screening of auranofin analogs. The class given is cell-based.
Text: as §1

A further data set concerns C. albicans ATCC 90028. Put plainly: Antifungal MIC. The class given is cell-based.
The test system of data set [1] is C. neoformans ATCC 208821. Put plainly: Antifungal MIC. Type of data set: cell-based. The conditions noted are these: for MIC: C. neoformans ATCC 208821.
The next data set concerns Gram-negative strains. Nature of the data set: In vitro antimicrobial activities, Gram-negative strains taken together. Type of data set: cell-based. Particulars: Gram-negative strains tested. The method, then:
Antibacterial assay. The minimum inhibitory concentrations (MICs) and the minimum bactericidal concentrations (MBCs) were determined by the broth microdilution method as described in the CLSI (The Clinical & Laboratory Standards Institute) guidelines (Performance standards for antimicrobial susceptibility testing: Clinical and Laboratory Standards Institute (CLSI), Twenty-Fifth informational supplement. Document M100-S25: […]; Vol. 35). All bacterial strains were cultured in cation-adjusted Muller Hinton broth (CAMHB) up to log-phase and then diluted to give a concentration of 7.5×10^5 CFU/mL. The gold complexes were dissolved in DMSO or water as stock solutions, which were then serially diluted two-fold in a 96-well plate. Aliquots (100 μL) of the dilutions were mixed with equal volumes of the bacterium suspension in a 96 well plate (in triplicates). The plates were incubated at 37° C. for 18 h without shaking. Negative and positive controls were included in the same well plate with wells having the culture medium only and bacteria solution only, respectively. The sample concentration that gave inhibition values above 90% were determined as MICs as calculated from absorbance values at 600 nm (OD600) obtained using a Tecan SPARK IOM plate reader. […] The sample concentration that gave no colony formed on agar plates were determined as MBCs. […]

Data set [2] can be described thus: Log P determination (n-octanol/water, FAAS). The method in brief:
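Shake-flask partition between mutually saturated n-octanol and water; Au in each phase quantified by flame AAS against aqueous Au-standard and n-octanol calibration curves. Compound shaken ~4 h in water then 1 h with octanol, or 3-4 h in both phases then diluted and shaken 1 h; log P = log([oct]/[water]).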

Take “(2,3,4,6-Tetra-O-acetyl-1-thio-β-D-glucopyranosato) (triethylphosphine) gold(I) [Compound 1, reference compound]”: the MIC (commonly the lowest concentration that inhibits growth of the organism) against C. neoformans KN99 was 16 µg/mL; in the data set on C. albicans ATCC 90028, >32 µg/mL; in data set [1] it was 8 µg/mL. Also, the “bactericidal activity at the lowest tested concentration” value in the data set on S. aureus was ≤ 0.5 µg/mL; in the data set with E. faecalis, ≤ 0.5 µg/mL; in the data set with MRSA, ≤ 0.25 µg/mL. In addition, the activity in words entry was “lacked significant activity” in the data set on E. cloacae, “lacked significant activity” in the data set on K. pneumoniae, “lacked significant activity” in the data set with P. aeruginosa and “no activity” in the data set on Gram-negative strains. In [1] (C. neoforman, strain not named), the “antifungal activity in words” value is listed as “moderate antifungal activity”. Besides, in [2] (n-octanol/water, gold by FAAS), the Log P (usually the decadic logarithm of the partition coefficient of the neutral form, usually between octanol and water) amounted to 0.56.

As for “(2-Aminobenzenethiolato)(triethylphosphine) gold(I) [Compound 19]”, the MIC with C. neoformans KN99 was 2 µg/mL. For the same substance, the “Log P” value in data set [2] was 0.61.

With “(2-Mercaptoethanolato)(trimethylphosphine) gold (I) [Compound 27]”, in data set [2], the “Log P” value is −0.15.

In the case of “[2,3,4,6-Tetra-O-acetyl-α-D-glucopyranosyl (1→4)-2,3,6-tri-O-acetyl-1-thio-β-D-glucopyranosato](triethylphosphine) gold(I) [Compound 5]”, the MIC (against C. albicans ATCC 90028; in data set [1]) was >32 µg/mL each time. Besides, the “Log P” value in data set [2] worked out at 0.45.
